# Values of other authors in patent US20090099557A1, “Methods and compositions for optimizing the outcomes of refractive laser surgery of the cornea” (priority 2006, published 2009).
# Key:
# epithelial cells [1] = settings: ethanol-assisted epithelial separation; Invest Opthalmol Vis Sci 43: 2593-2602 (2002); J Cataract Refract Surg 28: 1841-46 (2002)
# epithelial cells [2] = settings: 18% ethanol for 25 seconds; single cell layers of epithelial cells, in vitro
smiles,measurement,setting,value
CCO [ethanol],toxicity to epithelial cells,epithelial cells [1],toxic to epithelial cells in both a dose- and time-dependent manner
same,toxic effect of the alcohol on epithelial cells,epithelial cells [2],toxic effect
